The subject of the data set is ddY mice. The following applies: mouse, in vivo, ip.

The structures appear in SMILES notation.

In the case of `C=C(C[C@@H]1C[C@H](O)[C@]2(C)O[C@@H]3C[C@@H]4O[C@@H]5C[C@]6(C)O[C@]7(C)CC[C@@H]8O[C@@H]9C[C@]%10(C)O[C@@H]%11C(C)=CC(=O)O[C@H]%11C[C@H]%10O[C@H]9C[C@@H](C)[C@H]8O[C@H]7C[C@H]6O[C@@]5(C)C/C=C\[C@H]4O[C@H]3C[C@H]2O1)C(=O)O` [BTX-B5, brevetoxin B5], the symptoms after injection entry is “symptoms of neurotoxicity extremely similar to those caused by other brevetoxins”.

These data come from patent publication US20070111318A1 (priority 2003, published 2007).
